We go through one compound from patent US9918963B2, “Therapeutic agent for disease based on inhibitory effect of macrophage migration inhibitory factor” (TOYAMA CHEMICAL CO., LTD., priority 2013, dated 2018).

The target of experiment [1] is T1, MIF (Homo sapiens, UniProt P14174).
T1 construct: (catalogue number not given); host or cells: E. coli BL21 Star (DE3)
T1 sequence (P14174 2-115 limits assumed): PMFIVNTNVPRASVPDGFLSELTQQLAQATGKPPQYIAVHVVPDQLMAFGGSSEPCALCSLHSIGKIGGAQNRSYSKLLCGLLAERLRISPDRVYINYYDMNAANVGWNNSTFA
In words: Confirmation of the binding of Compound A and MIF (compound beads pull-down from THP-1 cell lysate, Western blotting). The note with it: elution with 0.5 mmol/L Compound A, anti-MIF Western blotting. On the procedure: THP-1 cells were cultured for about 6 hours in PRMI 1640 medium containing 1% fetal bovine serum and 50 μmol/L 2-mercaptoethanol. Then, lipopolysaccharide (E. coli 0127:B8, Sigma Aldrich) was added to the culture plate at a final concentration of 1 μg/mL, and the cells were cultured for about 30 minutes. The cells were harvested and washed with phosphate buffered saline, and mixed with about 2-fold volume of cell lysis buffer (20 mmol/L Tris, 150 mmol/L sodium chloride, 1 mmol/L magnesium chloride, 0.1% NP-40, 1 mmol/L dithiothreitol, 0.1% Triton X-100, pH 7.4). The resultant mixture was placed on ice with occasional stirring for about 30 minutes, and was centrifuged (20000×g, 4° C., 8 minutes). The separated and gained supernatant was used as cell lysate. Protein concentration of the cell lysate was measured with BCA protein assay reagent (Thermo Fisher Scientific K.K.) in accordance with its manual.
Immobilization of 4-amino-N-[7-[(methylsulfonyl)amino]-4-oxo-6-phenoxy-4H-1-benzopyran-3-yl]butanamide hydrochloride on Dynabeads M-270 Carboxylic Acid (Life Technologies Corporation) was performed by a general method. […]
A general note: In western blotting, separated proteins are transferred to a membrane and probed.

For experiment [2], the system named is chronic relapsing EAE model of mouse. The class given is in vivo. On the procedure: Compound A was selected as a test substance, and salazosulfapyridine (hereinafter referred to as SASP) was selected as a comparative control agent. Compound A was administered at a dose of 30 mg/kg (Compound A group). SASP was administered at a dose of 300 mg/kg (SASP group). In control group and normal group (no induction treatment group), 0.5% methyl cellulose aqueous solution used as vehicle of the administration liquid was administered.
The chronic relapsing EAE was induced in SJL/J female mice by immunization with partial PLP peptide. Briefly, an emulsion was prepared by mixing equivalent volumes of phosphate buffer saline containing 1 mg/mL of the peptide corresponding to residues 139-151 of the PLP and Freund's […] adjuvant containing 4 mg/mL of killed M. Tuberculosis H37Ra. The emulsion was intradermically injected (50 μg of PLP per mouse) into four positions on the back for immunization, and additionally, on the day of the immunization and two days after, pertussis toxin was intraperitoneally injected in each amount of 150 ng per mouse, twice in total. The vehicle, the test substance or the reference article was orally administered continuously for 44 days once daily from the day of the immunization.
In the present experiment, paralysis was developed to reach a peak on the 14th to 16th day after the immunization, and the symptom remitted once, but relapsed to reach a peak on the 38th day.
The symptom was evaluated in accordance with a report of Weaver et al. (FASEB Journal, 2005, vol. 19, p. 1668). Briefly, paralysis of all of the four limbs and the tail was evaluated by scoring in 4 ranks of scores of 0 to 3 and in 3 ranks of scores of 0 to 2, respectively, and the sum of the scores was determined as EAE score (the maximum score 14).
Incidence rates (the number of mice having developed the disease/the number of used mice) and the average of EAE score of each group were measured at the period of initial onset (on the 15th day after the immunization) and at the period of relapse (on the 38th day after the immunization).

Consider `CS(=O)(=O)Nc1cc2occ(NC=O)c(=O)c2cc1Oc1ccccc1` [Compound A, N-[7-[(methylsulfonyl)amino]-4-oxo-6-phenoxy-4H-1-benzopyran-3-yl]formamide], for which the “Binding of MIF to Compound A” value in experiment [1] is recorded as “specifically binds”. Also, the “EAE score, period of initial onset” value in experiment [2] (15th day after immunization, average, maximum score 14, oral once daily (Compound A 30 mg/kg, SASP 300 mg/kg)) turned out to be 1.4. For the same compound, the “Incidence rate, period of initial onset” value in experiment [2] (15th day after immunization, mice having developed the disease/mice used, oral once daily from immunization (Compound A 30 mg/kg, SASP 300 mg/kg)) was 1/8. Also, in experiment [2] (38th day after immunization, average, maximum score 14, oral once daily (Compound A 30 mg/kg, SASP 300 mg/kg)), the “EAE score, period of relapse” value was 0.3. Also, the “Incidence rate, period of relapse” value in experiment [2] (38th day after immunization, mice having developed the disease/mice used, oral once daily (Compound A 30 mg/kg, SASP 300 mg/kg)) is recorded as 2/8. Besides, the “Effect on incidence rate / EAE score, paralysis of chronic relapsing EAE” value in experiment [2] (oral once daily for 44 days from immunization (Compound A 30 mg/kg, SASP 300 mg/kg)) is “suppressed the occurrence of paralysis”.
